Reference: patent US6350749B1, “Aminoguanidine hydrazone derivatives, process for producing the same and drugs thereof” (Takeda Chemical Industries, Ltd., priority 1998, dated 2002)

| Compound | melting point |
| --- | --- |
| Cl.N=C(N)NN=C1CC(c2ccccc2)Cc2[nH]ccc21 (stereo not shown) | 192 to 194 °C |
| Cl.N=C(N)NN=C1CC(c2ccccc2)Cc2c1ccn2Cc1ccccc1 (stereo not shown) | 142 °C (dec.) |
| Cc1ccnc2c1C(=NNC(=N)N)CC(c1ccsc1)C2.Cl (stereo not shown) | ≥ 300 °C |
| Cc1ccnc2c1C(=NNC(=N)N)CC(c1ccsc1Cl)C2.Cl (stereo not shown) | 281 to 283 °C (dec.) |
| Cc1ccnc2c1C(=NNC(=N)N)CC(c1cc(Cl)sc1Cl)C2.Cl (stereo not shown) | ≥ 300 °C |
| Cc1ccnc2c1C(=NNC(=N)NO)CC(c1cc(Cl)sc1Cl)C2.Cl (stereo not shown) | 196 to 197 °C (dec.) |
| Cc1ccnc2c1C(=NNC(=N)NO)CC(c1ccccc1Cl)C2.Cl (stereo not shown) | 185 to 187 °C |
| Cl.N=C(N)N/N=C1\CC(c2ccccc2)Cc2occ(C(N)=O)c21 (stereo not shown) | 294 °C (dec.) |
| Cl.N=C(N)NN=C1CC(c2ccccc2)Cc2c1ccn2C(=O)c1ccccc1 (stereo not shown) | 168 °C (dec.) |
| Cc1ccnc2c1C(=NNC(=N)N)CC(c1cc(Cl)sc1Cl)C2.O=S(=O)(O)O (stereo not shown) | 239 to 242 °C |
| Cc1ccnc2c1C(=NNC(=N)N)CC(c1cc(Cl)sc1Cl)C2.O=[N+]([O-])O (stereo not shown) | 167 °C (dec.) |
| Cc1ccnc2c1C(=NNC(=N)N)CC(c1nccs1)C2.Cl (stereo not shown) | 282 °C (dec.) |
| Cc1ccnc2c1C(=NNC(=N)N)CC(c1sc(Cl)cc1Cl)C2.Cl (stereo not shown) | 184 to 187 °C |
| Cc1cc(Cl)sc1C1CC(=NNC(=N)N)c2c(C)ccnc2C1.Cl (stereo not shown) | 193 to 196 °C |
| Cc1ccnc2c1C(=NNC(=N)N)CC(c1cc(Br)sc1Br)C2.Cl (stereo not shown) | 272 to 273 °C |
| Cc1ccnc2c1C(=NNC(=N)NO)CC(c1ccsc1Br)C2.Cl (stereo not shown) | 197 to 198 °C |
| Cc1cnnc2c1C(=NNC(=N)N)CC(c1ccsc1)C2.Cl (stereo not shown) | 278 to 280 °C (dec.) |
| CS(=O)(=O)O.N=C(N)NN=C1CC(c2ccccc2Cl)Cc2nncc(C(F)(F)F)c21 (stereo not shown) | 207 to 208 °C |
| Cc1cc(=O)n(C)c2c1C(=NNC(=N)N)CC(c1ccsc1)C2.Cl (stereo not shown) | 156 to 157 °C |
| Cc1cc(=O)[nH]c2c1C(=NNC(=N)N)CC(c1ccsc1)C2.Cl (stereo not shown) | ≥ 300 °C |
| Cc1cc(=O)[nH]c2c1C(=NNC(=N)N)CC(c1ccccc1Cl)C2.Cl (stereo not shown) | ≥ 300 °C |
| CCc1cn(S(C)(=O)=O)c2c1C(=NNC(=N)N)CC(c1ccccc1)C2.Cl (stereo not shown) | 260 °C (dec.) |
| CS(=O)(=O)O.Cc1ccnc2c1C(=NNC(=N)N)CC(c1cc(Cl)ccc1Cl)C2 (stereo not shown) | 248 °C (dec.) |
| Cl.N=C(N)NN=C1CC(c2ccccc2Cl)Cc2nncc(-c3ccc(Cl)cc3)c21 (stereo not shown) | 196 °C (dec.) |
| COCc1n[nH]c2c1C(=NNC(=N)N)CC(c1ccccc1Cl)C2.Cl (stereo not shown) | 210 to 212 °C |

| Compound | melting point |
| --- | --- |
| Cc1nn(Cc2ccccc2)c2c1C(=NNC(=N)N)CC(c1ccccc1Cl)C2.Cl (stereo not shown) | 151 to 153 °C |
| Cc1ccccc1C1CC(=NNC(=N)N)c2c(C)cn(S(C)(=O)=O)c2C1.Cl (stereo not shown) | 228 to 230 °C |
| Cc1c2c(nn1-c1ccccc1)CC(c1ccccc1Cl)CC2=NNC(=N)N.Cl (stereo not shown) | 192 to 194 °C |
| Cc1nn(CCc2ccccc2)c2c1C(=NNC(=N)N)CC(c1ccccc1Cl)C2.Cl (stereo not shown) | 152 to 154 °C |
| Cc1c2c(nn1CCCc1ccccc1)CC(c1ccccc1Cl)CC2=NNC(=N)N.Cl (stereo not shown) | 170 to 180 °C |
| Cc1cnnc2c1C(=NNC(=N)NO)CC(c1ccccc1Cl)C2.Cl (stereo not shown) | 210 °C (dec.) |
| Cc1cn[n+]([O-])c2c1C(=NNC(=N)N)CC(c1ccccc1Cl)C2.Cl (stereo not shown) | 283 to 284 °C |
| Cc1cn(S(C)(=O)=O)c2c1C(=NNC(=N)N)CC(c1ccccc1F)C2.Cl (stereo not shown) | 286 °C (dec.) |
| Cc1cnnc2c1C(=NNC(=N)N)CC(c1cc(Cl)ccc1Cl)C2.Cl (stereo not shown) | 256 to 258 °C |
| Cc1ccc(Cl)c(C2CC(=NNC(=N)N)c3c(C)ccnc3C2)c1.Cl (stereo not shown) | 240 to 243 °C |
| Cc1ccc(F)c(C2CC(=NNC(=N)N)c3c(C)ccnc3C2)c1.Cl (stereo not shown) | 230 to 235 °C |
| Cc1ccc(Cl)cc1C1CC(=NNC(=N)N)c2c(C)ccnc2C1.Cl (stereo not shown) | 215 to 220 °C |
| Cc1ccc(F)cc1C1CC(=NNC(=N)N)c2c(C)ccnc2C1.Cl (stereo not shown) | 202 to 205 °C |
| COc1ccc(Cl)cc1C1CC(=NNC(=N)N)c2c(C)ccnc2C1.Cl (stereo not shown) | 205 to 209 °C |
| Cc1ccnc2c1C(=NNC(=N)N)CC(c1cc(Cl)ccc1O)C2.Cl (stereo not shown) | 202 °C (dec.) |
| COc1ccc(F)cc1C1CC(=NNC(=N)N)c2c(C)ccnc2C1.Cl (stereo not shown) | ≥ 300 °C |
| Cc1cn(S(C)(=O)=O)c2c1C(=NNC(=N)N)CC(c1ccccc1Cl)C2.Cl (stereo not shown) | 258 °C (dec.) |
| Cc1ccnc2c1C(=NNC(=N)N)CC(c1cc(F)ccc1Cl)C2.Cl (stereo not shown) | 268 °C (dec.) |
| Cc1ccc(Cl)c(C2CC(=NNC(=N)N)c3c(C)cnnc3C2)c1.Cl (stereo not shown) | 240 to 242 °C |
| Cc1ccc(F)cc1C1CC(=NNC(=N)N)c2c(C)cnnc2C1.Cl (stereo not shown) | 240 °C (dec.) |
| Cc1cnnc2c1C(=NNC(=N)N)CC(c1cc(Cl)ccc1F)C2.Cl (stereo not shown) | ≥ 300 °C |
| Cc1n[nH]c2c1C(=NNC(=N)N)CC(c1cc(Cl)ccc1Cl)C2.Cl (stereo not shown) | 287 °C (dec.) |
| Cc1cn(S(C)(=O)=O)c2c1C(=NNC(=N)N)CC(c1cccs1)C2.Cl (stereo not shown) | 297 °C (dec.) |
| Cc1ccc(S(=O)(=O)n2ccc3c2CC(c2ccccc2)CC3=NNC(=N)N)cc1.Cl (stereo not shown) | 252 to 256 °C |
| Cc1c[nH]c2c1C(=NNC(=N)N)CC(c1ccccc1)C2.Cl (stereo not shown) | 176 °C (dec.) |

| Compound | melting point |
| --- | --- |
| Cc1ccccc1C1CC(=NNC(=N)N)c2c(C)n[nH]c2C1.Cl (stereo not shown) | 211 °C (dec.) |
| COc1ccccc1C1CC(=NNC(=N)N)c2c(C)n[nH]c2C1.Cl (stereo not shown) | 202 °C (dec.) |
| Cc1n[nH]c2c1C(=NNC(=N)N)CC(c1ccccc1O)C2.Cl (stereo not shown) | 168 °C (dec.) |
| Cc1coc2c1C(=NNC(=N)N)CC(c1ccccc1)C2.Cl (stereo not shown) | 250 °C (dec.) |
| Cc1coc2c1/C(=N/NC(=N)N)CC(c1cccc(Br)c1)C2.Cl (stereo not shown) | 285 °C (dec.) |
| Cc1ccc(C2CC(=NNC(=N)N)c3c(C)coc3C2)cc1.Cl (stereo not shown) | 260 °C (dec.) |
| Cc1coc2c1C(=NNC(=N)N)CC(c1ccc(Br)cc1)C2.Cl (stereo not shown) | 235 °C (dec.) |
| COc1ccc(C2CC(=NNC(=N)N)c3c(C)coc3C2)cc1.Cl (stereo not shown) | 182 °C (dec.) |
| Cc1ccccc1C1CC(=NNC(=N)N)c2c(C)coc2C1.Cl (stereo not shown) | 266 °C (dec.) |
| Cc1ccc(C)c(C2C/C(=N\NC(=N)N)c3c(C)coc3C2)c1.Cl (stereo not shown) | 235 to 236 °C |
| Cc1coc2c1/C(=N/NC(=N)N)CC(c1ccccc1C(F)(F)F)C2.Cl (stereo not shown) | 275 °C (dec.) |
| Cc1cc2c([nH]1)CC(c1ccccc1)CC2=NNC(=N)N.Cl (stereo not shown) | 215 °C (dec.) |
| Cc1coc2c1/C(=N/NC(=N)N)CC(c1ccccc1F)C2.Cl (stereo not shown) | 288 °C (dec.) |
| Cc1coc2c1C(=NNC(=N)N)CC(c1ccc(F)cc1F)C2.Cl (stereo not shown) | 278 °C (dec.) |
| Cc1coc2c1/C(=N/NC(=N)N)CC(c1ccccc1Cl)C2.Cl (stereo not shown) | 300 °C (dec.) |
| Cc1coc2c1/C(=N/NC(=N)N)CC(c1cccc(Cl)c1Cl)C2.Cl (stereo not shown) | 286 °C (dec.) |
| Cc1coc2c1/C(=N/NC(=N)N)CC(c1ccccc1Br)C2.Cl (stereo not shown) | 296 °C (dec.) |
| Cc1coc2c1/C(=N/NC(=N)N)CC(c1ccco1)C2.Cl (stereo not shown) | ≥ 300 °C |
| Cc1ccc(C2Cc3occc3/C(=N/NC(=N)N)C2C)s1.Cl (stereo not shown) | 287 °C (dec.) |
| Cl.N=C(N)N/N=C1\CC(c2ccc(F)cc2)Cc2occ(C(F)(F)F)c21 (stereo not shown) | 283 °C (dec.) |
| Cl.N=C(N)N/N=C1\CC(c2ccccc2Br)Cc2occ(C(F)(F)F)c21 (stereo not shown) | 289 °C (dec.) |
| Cl.N=C(N)N/N=C1\CC(c2ccco2)Cc2occ(C(F)(F)F)c21 (stereo not shown) | 282 °C (dec.) |
| CCOC(=O)c1coc2c1/C(=N/NC(=N)N)CC(c1ccccc1)C2.Cl (stereo not shown) | 260 °C (dec.) |
| CCOC(=O)c1coc2c1/C(=N/NC(=N)N)CC(c1ccccc1Cl)C2.Cl (stereo not shown) | 277 °C (dec.) |
| Cc1ccccc1C1CC(=NNC(=N)N)c2c(C)ccnc2C1.Cl (stereo not shown) | 218 °C (dec.) |

| Compound | melting point |
| --- | --- |
| Cc1ccnc2c1C(=NNC(=N)N)CC(c1ccc(F)cc1F)C2.Cl (stereo not shown) | 286 °C (dec.) |
| Cc1ccnc2c1C(=NNC(=N)N)CC(c1cccc(Cl)c1Cl)C2.Cl (stereo not shown) | 270 to 272 °C |
| Cc1ccnc2c1C(=NNC(=N)N)CC(c1ccccc1Br)C2.Cl (stereo not shown) | 233 °C (dec.) |
| COc1ccccc1C1CC(=NNC(=N)N)c2c(C)ccnc2C1.Cl (stereo not shown) | 192 °C (dec.) |
| Cc1ccnc2c1C(=NNC(=N)N)CC(c1ccco1)C2.Cl (stereo not shown) | ≥ 300 °C |
| Cc1ccnc2c1C(=NNC(=N)N)CC(c1ccncc1)C2.Cl (stereo not shown) | 267 °C (dec.) |
| Cc1cn(C)c2c1C(=NNC(=N)N)CC(c1ccccc1)C2.Cl (stereo not shown) | 230 °C (dec.) |
| Cc1ccc2c(n1)CC(c1ccccc1)CC2=NNC(=N)N.Cl (stereo not shown) | ≥ 300 °C |
| Cc1cc(C)c2c(n1)CC(c1ccccc1)CC2=NNC(=N)N.Cl (stereo not shown) | 270 °C (dec.) |
| Cc1cc(C)c2c(n1)CC(c1ccccc1Cl)CC2=NNC(=N)N.Cl (stereo not shown) | 227 °C (dec.) |
| Cc1cc(C)c2c(n1)CC(c1ccccn1)CC2=NNC(=N)N.Cl (stereo not shown) | 201 °C (dec.) |
| Cc1ccc2c(n1)CC(c1ccccc1C)CC2=NNC(=N)N.Cl (stereo not shown) | 206 °C (dec.) |
| Cc1ncnc2c1/C(=N/NC(=N)N)CC(c1ccccc1Cl)C2.Cl (stereo not shown) | 284 °C (dec.) |
| CCCn1ccc2c1CC(c1ccccc1)CC2=NNC(=N)N.Cl (stereo not shown) | 155 °C (dec.) |
| Cc1nc(C)c2c(n1)CC(c1ccccc1Cl)C/C2=N\NC(=N)N.Cl (stereo not shown) | 242 to 244 °C |
| Cc1ccccc1C1=CC(=NNC(=N)N)c2c(C)ccnc21.Cl | 203 to 204 °C (dec.) |
| CNC(=N)NN=C1CC(c2ccccc2Cl)Cc2[nH]nc(C)c21.Cl (stereo not shown) | 240 °C (dec.) |
| Cc1ccc(C)c(C2CC(=NNC(=N)NO)c3c(C)ccnc3C2)c1.Cl (stereo not shown) | 190 to 192 °C (dec.) |
| Cc1ccnc2c1C(=NNC(=N)NO)CC(c1cccc(Cl)c1Cl)C2.Cl (stereo not shown) | 196 to 198 °C (dec.) |
| Cc1ccnc2c1C(=NNC(=N)NO)CC(c1ccco1)C2.Cl (stereo not shown) | 196 to 198 °C (dec.) |
| Cc1ccc(C2CC(=NNC(=N)NO)c3c(C)ccnc3C2)s1.Cl (stereo not shown) | 210 to 212 °C (dec.) |
| Cl.N=C(N)NN=C1CC(c2ccccc2)Cc2[nH]c(=O)ccc21 (stereo not shown) | ≥ 300 °C |
